According to ChEMBL document CHEMBL2074248, “Regulation of biliary drug efflux pump expression by hormones and xenobiotics” (Toxicology, 2001):

What was measured:
Bile salt export pump [1] = molecular target: T1, Bile salt export pump (Rattus norvegicus, UniProt O70127); assay: TP_TRANSPORTER: Northern blot in vivo rat; assay type: functional, organism-based, Liver
T1 sequence (O70127 whole entry): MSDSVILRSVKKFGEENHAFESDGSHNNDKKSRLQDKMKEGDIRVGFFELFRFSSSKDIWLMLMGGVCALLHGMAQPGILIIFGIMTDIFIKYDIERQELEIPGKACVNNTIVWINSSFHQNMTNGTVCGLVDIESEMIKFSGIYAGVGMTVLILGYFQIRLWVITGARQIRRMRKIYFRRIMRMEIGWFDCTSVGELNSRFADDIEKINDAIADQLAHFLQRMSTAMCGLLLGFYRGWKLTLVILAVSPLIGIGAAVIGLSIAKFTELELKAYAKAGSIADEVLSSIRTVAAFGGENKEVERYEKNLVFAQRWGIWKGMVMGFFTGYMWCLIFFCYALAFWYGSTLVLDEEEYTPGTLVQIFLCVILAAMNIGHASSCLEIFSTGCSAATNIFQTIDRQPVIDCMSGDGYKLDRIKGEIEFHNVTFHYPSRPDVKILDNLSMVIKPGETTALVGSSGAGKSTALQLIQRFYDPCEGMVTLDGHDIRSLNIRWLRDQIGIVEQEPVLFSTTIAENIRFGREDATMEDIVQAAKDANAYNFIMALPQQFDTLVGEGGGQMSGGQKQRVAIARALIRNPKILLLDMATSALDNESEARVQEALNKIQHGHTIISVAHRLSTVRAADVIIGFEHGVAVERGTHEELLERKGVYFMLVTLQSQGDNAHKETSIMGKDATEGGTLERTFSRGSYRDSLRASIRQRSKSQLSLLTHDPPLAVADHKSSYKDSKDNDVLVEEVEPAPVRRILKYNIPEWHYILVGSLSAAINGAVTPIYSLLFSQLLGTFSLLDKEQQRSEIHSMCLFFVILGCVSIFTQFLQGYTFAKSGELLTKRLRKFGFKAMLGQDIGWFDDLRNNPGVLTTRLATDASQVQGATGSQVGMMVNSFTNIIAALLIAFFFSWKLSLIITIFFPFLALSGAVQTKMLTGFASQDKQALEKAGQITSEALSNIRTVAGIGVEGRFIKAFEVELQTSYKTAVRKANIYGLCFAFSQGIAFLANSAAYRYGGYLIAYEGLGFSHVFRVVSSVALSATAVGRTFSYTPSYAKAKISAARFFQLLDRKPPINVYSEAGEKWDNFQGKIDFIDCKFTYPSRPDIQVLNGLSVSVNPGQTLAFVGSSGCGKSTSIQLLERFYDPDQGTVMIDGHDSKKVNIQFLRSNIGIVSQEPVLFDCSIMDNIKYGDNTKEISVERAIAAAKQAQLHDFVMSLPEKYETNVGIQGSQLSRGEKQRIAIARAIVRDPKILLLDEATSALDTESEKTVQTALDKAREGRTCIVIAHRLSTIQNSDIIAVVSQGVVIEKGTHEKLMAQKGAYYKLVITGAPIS

Bile salt export pump [2] = molecular target: T1, Bile salt export pump; assay: TP_TRANSPORTER: Northern blot from primary hepatocytes; assay type: functional, cell-based, Sprague-Dawley, Hepatocyte

C[C@@H]1C[C@H]2[C@@H]3CCC4=CC(=O)C=C[C@]4(C)[C@@]3(F)[C@@H](O)C[C@]2(C)[C@@]1(O)C(=O)CO [DEXAMETHASONE]
Activity (Bile salt export pump [1]): inducer [+] | Activity (Bile salt export pump [2]): inducer [+]
